In patent publication US12570642B2, “GLP-IR modulating compounds” (Gilead Sciences, Inc., priority 2021, dated 2026):

Biological target: GLP-1R (Homo sapiens, UniProt P43220)
Assay: GLP-1R Activation - cAMP Assay
Assay type: cell-based
Conditions: cAMP increase in CHO cells stably expressing GLP-1R; each compound run on one of the two cAMP assays (Assay 1 or Assay 2, not specified)
In short: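 cAMP rise read by HTRF after 30 min agonist exposure (10-point titration, 37 °C) in HBSS/20 mM Hepes/0.1% BSA, following 1 h pre-incubation. Cells: stable GLP-1R CHO line, 1,000/well, seeded overnight. Sigmoidal fit of response vs log concentration gives EC50.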

GLP-1R, sequence (P43220 24-463): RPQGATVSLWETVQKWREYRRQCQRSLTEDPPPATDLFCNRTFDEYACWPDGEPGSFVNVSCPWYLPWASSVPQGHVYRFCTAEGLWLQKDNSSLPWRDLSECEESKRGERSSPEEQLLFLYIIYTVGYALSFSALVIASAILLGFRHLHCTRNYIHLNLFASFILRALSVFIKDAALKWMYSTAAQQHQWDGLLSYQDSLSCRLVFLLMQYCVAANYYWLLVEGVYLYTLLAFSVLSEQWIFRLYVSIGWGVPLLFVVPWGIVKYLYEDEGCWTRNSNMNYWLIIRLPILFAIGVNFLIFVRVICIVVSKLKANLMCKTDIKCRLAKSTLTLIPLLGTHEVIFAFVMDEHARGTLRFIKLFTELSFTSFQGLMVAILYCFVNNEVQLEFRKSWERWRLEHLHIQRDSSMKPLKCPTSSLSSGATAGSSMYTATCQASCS

Row | Structure (SMILES) | EC50 [nM]
1 | COCCn1c(Cc2cc(F)c(-c3cccc(OCc4ccc(C#N)cc4F)n3)cc2F)nc2c(-c3cnn(CCN4CCOCC4)c3)cc(C(=O)O)cc21 [Example 56, 2-(4-(6-((4-cyano-2-fluorobenzyl)oxy)pyridin-2-yl)-2,5-difluorobenzyl)-1-(2-methoxyethyl)-4-(1-(2-morpholinoethyl)-1H-pyrazol-4-yl)-1H-benzo[d]imidazole-6-carboxylic Acid] | 903
2 | CC(Cn1c(Cc2cc(F)c(-c3cccc(OCc4ccc(C#N)cc4F)n3)cc2F)nc2ccc(C(=O)O)cc21)OC(F)F (stereo not shown) [Example 22, 2-(4-(6-((4-cyano-2-fluorobenzyl)oxy)pyridin-2-yl)-2,5-difluorobenzyl)-1-(2-(difluoromethoxy)propyl)-1H-benzo[d]imidazole-6-carboxylic Acid] | 0.72
3 | CO[C@H]1COC[C@H]1n1c(Cc2cc(F)c(-c3cccc(OCc4ccc(Cl)cc4F)n3)cc2F)nc2ccc(C(=O)O)cc21 [Example 533, 2-(4-(6-((4-chloro-2-fluorobenzyl)oxy)pyridin-2-yl)-2,5-difluorobenzyl)-1-((3R,4R)-4-methoxytetrahydrofuran-3-yl)-1H-benzo[d]imidazole-6-carboxylic acid] | 0.5
4 | CCO[C@H]1COC[C@H]1n1c(Cc2cc(F)c(-c3cccc(OCc4ccc(Cl)cc4F)n3)cc2F)nc2ccc(C(=O)O)cc21 [Example 571, 2-(4-(6-((4-chloro-2-fluorobenzyl)oxy)pyridin-2-yl)-2,5-difluorobenzyl)-1-((3R,4R)-4-ethoxytetrahydrofuran-3-yl)-1H-benzo[d]imidazole-6-carboxylic acid] | 1.27
5 | CC(C)COCCn1c(Cc2cc(F)c(-c3cccc(OCc4ccc(Cl)cc4F)n3)cc2F)nc2ccc(C(=O)O)cc21 [Example 566, 2-(4-(6-((4-chloro-2-fluorobenzyl)oxy)pyridin-2-yl)-2,5-difluorobenzyl)-1-(2-isobutoxyethyl)-1H-benzo[d]imidazole-6-carboxylic acid] | 4.09
6 | CO[C@@H](C)Cn1c(Cc2cc(F)c(-c3cccc(OCc4ccc(C#N)cc4F)n3)cc2F)nc2c(F)cc(C(=O)O)cc21 [Example 518, (S)-2-(4-(6-((4-cyano-2-fluorobenzyl)oxy)pyridin-2-yl)-2,5-difluorobenzyl)-4-fluoro-1-(2-methoxypropyl)-1H-benzo[d]imidazole-6-carboxylic acid] | 0.887
7 | COCCn1c(Cc2cc(F)c(-c3cccc(OCc4ncc(C#N)cc4F)n3)cc2F)nc2ccc(C(=O)O)cc21 [Example 39] | 8.98
8 | COCCn1c(Cc2cc(F)c(-c3cccc(OCc4ccc(C)nc4C)n3)cc2F)nc2ccc(C(=O)O)cc21 [Example 25] | 7.55
9 | N#Cc1ccc(COc2cccc(-c3cc(F)c(Cc4nc5ccc(C(=O)O)cc5n4[C@@H]4C[C@@H]4C(F)F)cc3F)n2)c(F)c1 [Example 4, 2-(4-(6-((4-cyano-2-fluorobenzyl)oxy)pyridin-2-yl)-2,5-difluorobenzyl)-1-((1R,2S)-2-(difluoromethyl)cyclopropyl)-1H-benzo[d]imidazole-6-carboxylic acid] | 2.65

Stronger by EC50, values ahead:

Row | EC50 [nM] | Structure (SMILES)
10 | 0.085 | Cc1cn(-c2ccc(COc3cccc(-c4cc(F)c(Cc5nc6ccc(C(=O)O)cc6n5[C@@H]5COCC5(C)C)cc4F)n3)c(F)c2)nn1 [Example 164, (S)-2-(2,5-difluoro-4-(6-((2-fluoro-4-(4-methyl-1H-1,2,3-triazol-1-yl)benzyl)oxy)pyridin-2-yl)benzyl)-1-(4,4-dimethyltetrahydrofuran-3-yl)-1H-benzo[d]imidazole-6-carboxylic Acid]
11 | 0.477 | CC1(C)COC[C@H]1n1c(Cc2c(F)cc(-c3ccc(F)c(OCc4ccc(C#N)cc4)n3)c(F)c2F)nc2ccc(C(=O)O)cc21 [Example 283, (S)-2-(4-(6-((4-cyanobenzyl)oxy)-5-fluoropyridin-2-yl)-2,3,6-trifluorobenzyl)-1-(4,4-dimethyltetrahydrofuran-3-yl)-1H-benzo[d]imidazole-6-carboxylic acid]
12 | 0.332 | Cc1cc(F)c(COc2cccc(-c3cc(F)c(Cc4nc5ccc(C(=O)O)cc5n4[C@@H]4COCC4(C)C)cc3F)n2)cc1F [Example 456, (S)-2-(4-(6-((2,5-difluoro-4-methylbenzyl)oxy)pyridin-2-yl)-2,5-difluorobenzyl)-1-(4,4-dimethyltetrahydrofuran-3-yl)-1H-benzo[d]imidazole-6-carboxylic acid]
13 | 0.044 | COC[C@H]1COC[C@H]1n1c(Cc2cc(F)c(-c3ccc(F)c(OCc4ccc(Cl)cc4)n3)cc2F)nc2ccc(C(=O)O)cc21 [Example 545, 2-(4-(6-((4-chlorobenzyl)oxy)-5-fluoropyridin-2-yl)-2,5-difluorobenzyl)-1-((3S,4S)-4-(methoxymethyl)tetrahydrofuran-3-yl)-1H-benzo[d]imidazole-6-carboxylic acid]
14 | 0.18 | Cc1cc(F)ccc1COc1cccc(-c2cc(F)c(Cc3nc4ccc(C(=O)O)cc4n3[C@@H]3COCC3(C)C)cc2F)n1 [Example 465, (S)-2-(2,5-difluoro-4-(6-((4-fluoro-2-methylbenzyl)oxy)pyridin-2-yl)benzyl)-1-(4,4-dimethyltetrahydrofuran-3-yl)-1H-benzo[d]imidazole-6-carboxylic acid]
15 | 0.043 | CC1(C)COC[C@H]1n1c(Cc2c(F)cc(-c3ccc(F)c(OCc4cnc(-n5ccnn5)cc4Cl)n3)c(F)c2F)nc2ccc(C(=O)O)cc21 [Example 159, (S)-2-(4-(6-((4-chloro-6-(1H-1,2,3-triazol-1-yl)pyridin-3-yl)methoxy)-5-fluoropyridin-2-yl)-2,3,6-trifluorobenzyl)-1-(4,4-dimethyltetrahydrofuran-3-yl)-1H-benzo[d]imidazole-6-carboxylic Acid]
16 | 0.038 | CC1(C)COC[C@H]1n1c(Cc2cc(F)c(-c3cccc(OCc4ccc(C#N)cc4F)n3)cc2F)nc2c(Cl)cc(C(=O)O)cc21 [Example 130, (S)-4-chloro-2-(4-(6-((4-cyano-2-fluorobenzyl)oxy)pyridin-2-yl)-2,5-difluorobenzyl)-1-(4,4-dimethyltetrahydrofuran-3-yl)-1H-benzo[d]imidazole-6-carboxylic Acid]
17 | 0.048 | COCCn1c(Cc2c(F)cc(-c3cccc(OCc4ccc(-n5ccnn5)cc4F)n3)c(F)c2F)nc2c(F)cc(C(=O)O)cc21 [Example 250, 4-fluoro-1-(2-methoxyethyl)-2-(2,3,6-trifluoro-4-(6-((2-fluoro-4-(1H-1,2,3-triazol-1-yl)benzyl)oxy)pyridin-2-yl)benzyl)-1H-benzo[d]imidazole-6-carboxylic acid]
18 | 0.121 | CC1(C)COC[C@H]1n1c(Cc2cc(F)c(-c3ccnc(OCc4ccc(C(F)(F)F)cc4)n3)cc2F)nc2ccc(C(=O)O)cc21 [Example 537, (S)-2-(2,5-difluoro-4-(2-((4-(trifluoromethyl)benzyl)oxy)pyrimidin-4-yl)benzyl)-1-(4,4-dimethyltetrahydrofuran-3-yl)-1H-benzo[d]imidazole-6-carboxylic acid]
19 | 0.077 | COC[C@H]1COC[C@H]1n1c(Cc2cc(F)c(-c3ccc(F)c(OCc4ccc(C#N)cc4)n3)cc2F)nc2ccc(C(=O)O)cc21 [Example 467, 2-(4-(6-((4-cyanobenzyl)oxy)-5-fluoropyridin-2-yl)-2,5-difluorobenzyl)-1-((3S,4S)-4-(methoxymethyl)tetrahydrofuran-3-yl)-1H-benzo[d]imidazole-6-carboxylic acid]
